{"source": "ChEMBL document CHEMBL1201862", "about": "“PubChem BioAssay data set” (2004)", "key": {"[1]": {"target": "Glucose-6-phosphate 1-dehydrogenase (Homo sapiens, UniProt P11413)", "sequence (P11413 whole entry)": "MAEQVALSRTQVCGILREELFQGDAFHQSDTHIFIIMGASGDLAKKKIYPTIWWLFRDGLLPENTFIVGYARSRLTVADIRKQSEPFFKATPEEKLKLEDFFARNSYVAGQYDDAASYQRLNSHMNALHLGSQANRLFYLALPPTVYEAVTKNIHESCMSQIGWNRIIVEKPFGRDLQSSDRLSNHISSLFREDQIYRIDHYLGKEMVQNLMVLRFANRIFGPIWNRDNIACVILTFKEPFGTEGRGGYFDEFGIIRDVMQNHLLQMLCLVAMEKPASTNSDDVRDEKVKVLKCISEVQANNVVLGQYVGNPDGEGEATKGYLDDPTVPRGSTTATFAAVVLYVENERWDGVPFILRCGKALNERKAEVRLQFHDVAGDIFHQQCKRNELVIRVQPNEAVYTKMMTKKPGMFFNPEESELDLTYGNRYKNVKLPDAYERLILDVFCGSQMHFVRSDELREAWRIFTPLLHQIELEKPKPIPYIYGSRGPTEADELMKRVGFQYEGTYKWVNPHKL", "assay": "inhibition of Homo sapiens G6PD, dose series – biochemical, fluorescence, selectivity assay for P. falciparum G6PD inhibitor project, dose response (AID 504792)", "assay_type": "functional"}, "[2]": {"assay": "alpha-synuclein stem-loop luciferase translation blockers – H4 neuroglioma cells, luminescence, confirmation (AID 1988)", "assay_type": "functional, cell-based"}, "[3]": {"assay": "Luminescence Cell-Based Dose Response HTS to Identify Inhibitors of 5'UTR Stem-Loop Driven Prion Protein mRNA Translation in H4 Neuroglioblastoma Cells. [Related pubchem assays: 1827 (Project Summary), 1813 (Primary HTS)]", "assay_type": "functional"}, "[4]": {"assay": "luciferase reporter signal suppression in cells – H4 neuroglioma cells, luminescence, dose response (AID 1990)", "assay_type": "functional, cell-based"}, "[5]": {"assay": "Luminescence Cell-Based Dose Retest to Confirm Inhibitors of Cancer Stem Cells. [Related pubchem assays (depositor defined):AID2717, AID2721]", "assay_type": "functional", "settings": "Homo sapiens"}, "Fatty acid synthase": {"target": "Fatty acid synthase (Homo sapiens, UniProt P49327)", "assay": "inhibition of human FAS-TE enzyme activity – biochemical, kinetic fluorescence intensity, dose response (AID 624326);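 further: rate of fluorescence rise from hydrolysis of a fluorogenic O-methyl fluorescein ester substrate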", "assay_type": "functional"}, "[6]": {"target": "T1, Corticotropin-releasing factor receptor 2/Corticotropin-releasing factor-binding protein (Homo sapiens, UniProt P24387+Q13324)", "T1 sequence (Q13324 whole entry)": "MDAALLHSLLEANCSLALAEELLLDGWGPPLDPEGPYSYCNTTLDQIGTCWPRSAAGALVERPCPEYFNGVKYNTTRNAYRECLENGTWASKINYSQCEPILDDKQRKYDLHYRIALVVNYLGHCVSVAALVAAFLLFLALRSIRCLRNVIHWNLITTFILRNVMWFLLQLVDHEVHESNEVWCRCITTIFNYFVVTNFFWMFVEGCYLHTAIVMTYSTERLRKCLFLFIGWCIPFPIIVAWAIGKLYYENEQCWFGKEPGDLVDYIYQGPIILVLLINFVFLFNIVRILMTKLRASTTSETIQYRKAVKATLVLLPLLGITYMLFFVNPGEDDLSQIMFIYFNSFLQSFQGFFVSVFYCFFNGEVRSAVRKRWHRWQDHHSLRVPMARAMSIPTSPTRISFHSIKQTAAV", "T1 sequence (P24387 whole entry)": "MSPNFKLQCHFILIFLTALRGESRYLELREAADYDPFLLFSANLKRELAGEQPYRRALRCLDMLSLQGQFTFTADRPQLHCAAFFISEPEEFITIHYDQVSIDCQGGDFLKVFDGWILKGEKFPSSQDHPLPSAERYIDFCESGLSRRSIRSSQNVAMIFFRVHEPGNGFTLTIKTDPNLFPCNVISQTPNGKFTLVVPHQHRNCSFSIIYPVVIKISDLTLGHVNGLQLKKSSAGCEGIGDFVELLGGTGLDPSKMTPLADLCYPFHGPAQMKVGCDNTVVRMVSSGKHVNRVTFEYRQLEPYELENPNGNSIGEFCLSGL", "assay": "activators of CRF receptor 2 with binding protein – uHTS hits, confirmation (AID 602473)", "assay_type": "functional", "settings": "read-out: EC50_Mean"}, "[7]": {"target": "T1, Corticotropin-releasing factor receptor 2/Corticotropin-releasing factor-binding protein", "assay": "Dose Response confirmation of uHTS hits for small molecule antagonists of the CRF-binding protein and CRF-R2 receptor complex.", "assay_type": "functional", "settings": "read-out: IC50_Mean"}, "[8]": {"target": "T2, Rac GTPase-activating protein 1 (Homo sapiens, UniProt Q9H0H5)", "T2 sequence (Q9H0H5 whole entry)": "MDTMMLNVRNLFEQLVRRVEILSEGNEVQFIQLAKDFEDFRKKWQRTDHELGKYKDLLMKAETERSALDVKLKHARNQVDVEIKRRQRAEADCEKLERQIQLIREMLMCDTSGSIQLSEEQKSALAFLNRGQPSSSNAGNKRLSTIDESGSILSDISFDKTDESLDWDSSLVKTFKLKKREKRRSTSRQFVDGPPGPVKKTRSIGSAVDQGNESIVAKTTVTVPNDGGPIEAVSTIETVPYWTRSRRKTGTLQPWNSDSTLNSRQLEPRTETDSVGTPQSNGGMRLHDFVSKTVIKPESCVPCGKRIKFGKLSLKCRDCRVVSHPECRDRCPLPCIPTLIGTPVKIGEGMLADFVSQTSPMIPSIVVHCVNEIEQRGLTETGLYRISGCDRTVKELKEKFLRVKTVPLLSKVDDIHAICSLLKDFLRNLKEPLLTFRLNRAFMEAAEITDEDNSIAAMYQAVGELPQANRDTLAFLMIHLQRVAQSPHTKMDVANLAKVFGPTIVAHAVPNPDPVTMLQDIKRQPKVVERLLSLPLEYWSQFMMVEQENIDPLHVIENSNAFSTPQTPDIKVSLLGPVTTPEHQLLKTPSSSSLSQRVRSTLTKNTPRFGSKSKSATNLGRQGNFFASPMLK", "assay": "blockers of MgcRacGAP-driven Rac1 GTP hydrolysis – biochemical, ADP Hunter fluorescence, primary and confirmatory, confirmation (AID 624330)", "assay_type": "functional"}, "[9]": {"target": "Peroxisome proliferator-activated receptor gamma/Nuclear receptor coactivator 2 (Homo sapiens, UniProt P37231)", "assay": "(§1) TR-FRET dose response biochemical High Throughput Screening assay for agonists of the steroid receptor coactivator 2 (SRC-2) recruitment by the peroxisome proliferator-activated receptor gamma (PPAR gamma): non-selective agonists. [Related pubchem assays: 1297, 1032 ]", "assay_type": "functional"}, "[10]": {"target": "Peroxisome proliferator-activated receptor gamma/Nuclear receptor coactivator 3 (Homo sapiens, UniProt P37231)", "sequence (P37231 whole entry)": "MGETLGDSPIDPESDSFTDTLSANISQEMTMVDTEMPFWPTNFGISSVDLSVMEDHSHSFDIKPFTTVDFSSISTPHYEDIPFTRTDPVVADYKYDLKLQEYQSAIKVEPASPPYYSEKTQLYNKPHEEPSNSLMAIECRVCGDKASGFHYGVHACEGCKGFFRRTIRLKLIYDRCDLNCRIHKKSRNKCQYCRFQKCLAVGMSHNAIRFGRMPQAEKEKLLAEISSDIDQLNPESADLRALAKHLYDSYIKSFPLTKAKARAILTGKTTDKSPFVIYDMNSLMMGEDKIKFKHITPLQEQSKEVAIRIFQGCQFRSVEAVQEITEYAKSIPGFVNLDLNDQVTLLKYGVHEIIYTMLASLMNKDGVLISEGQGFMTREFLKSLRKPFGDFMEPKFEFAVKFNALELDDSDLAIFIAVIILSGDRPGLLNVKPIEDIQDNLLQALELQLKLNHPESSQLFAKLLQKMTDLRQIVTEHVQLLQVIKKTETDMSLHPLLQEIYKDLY", "sequence (Q9Y6Q9 whole entry, further chain)": "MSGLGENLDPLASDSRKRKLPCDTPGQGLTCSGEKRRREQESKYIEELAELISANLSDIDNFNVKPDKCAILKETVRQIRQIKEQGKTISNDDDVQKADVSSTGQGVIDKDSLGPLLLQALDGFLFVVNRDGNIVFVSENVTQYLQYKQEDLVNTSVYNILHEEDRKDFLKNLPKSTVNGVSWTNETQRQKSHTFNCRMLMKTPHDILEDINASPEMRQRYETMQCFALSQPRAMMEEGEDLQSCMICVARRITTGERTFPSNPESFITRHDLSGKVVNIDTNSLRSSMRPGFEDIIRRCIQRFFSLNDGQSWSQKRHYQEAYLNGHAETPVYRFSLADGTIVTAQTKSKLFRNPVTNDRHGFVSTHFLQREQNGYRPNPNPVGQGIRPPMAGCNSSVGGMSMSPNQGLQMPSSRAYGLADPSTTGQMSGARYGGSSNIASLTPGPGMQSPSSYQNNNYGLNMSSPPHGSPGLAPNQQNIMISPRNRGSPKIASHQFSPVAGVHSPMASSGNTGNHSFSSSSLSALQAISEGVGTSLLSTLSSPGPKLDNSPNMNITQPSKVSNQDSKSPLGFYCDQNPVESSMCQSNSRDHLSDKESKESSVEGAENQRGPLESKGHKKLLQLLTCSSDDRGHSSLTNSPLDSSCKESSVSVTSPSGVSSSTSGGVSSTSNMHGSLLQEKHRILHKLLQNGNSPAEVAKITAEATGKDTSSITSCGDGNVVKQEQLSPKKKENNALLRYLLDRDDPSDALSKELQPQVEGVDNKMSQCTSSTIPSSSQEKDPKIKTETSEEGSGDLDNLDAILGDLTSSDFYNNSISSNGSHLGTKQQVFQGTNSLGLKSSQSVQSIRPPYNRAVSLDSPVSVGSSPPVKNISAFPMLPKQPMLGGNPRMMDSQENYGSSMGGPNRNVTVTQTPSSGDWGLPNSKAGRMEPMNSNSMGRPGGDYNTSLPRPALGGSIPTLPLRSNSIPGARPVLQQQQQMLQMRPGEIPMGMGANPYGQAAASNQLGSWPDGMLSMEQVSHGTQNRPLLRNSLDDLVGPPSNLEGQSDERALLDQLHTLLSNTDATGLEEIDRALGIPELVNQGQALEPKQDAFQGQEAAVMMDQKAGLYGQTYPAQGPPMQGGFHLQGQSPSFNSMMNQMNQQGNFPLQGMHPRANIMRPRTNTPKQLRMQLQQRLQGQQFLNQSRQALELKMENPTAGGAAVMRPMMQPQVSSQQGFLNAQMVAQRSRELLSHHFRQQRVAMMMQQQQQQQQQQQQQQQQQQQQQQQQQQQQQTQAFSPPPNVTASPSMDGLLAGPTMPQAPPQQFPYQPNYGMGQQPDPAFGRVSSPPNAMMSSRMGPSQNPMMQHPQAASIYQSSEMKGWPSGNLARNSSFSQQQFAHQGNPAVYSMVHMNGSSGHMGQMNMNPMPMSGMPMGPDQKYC", "assay": "as §1, with “3 (SRC-3)” for “2 (SRC-2)”, “1301 (Confirmation screen.), 1048 (Primary screen.)]” for “1297, 1032 ]”", "assay_type": "functional"}, "[11]": {"target": "Peroxisome proliferator-activated receptor gamma/Nuclear receptor coactivator 1 (Homo sapiens, UniProt P37231)", "sequence (P37231 whole entry)": "as the sequence (P37231 whole entry) above", "sequence (Q15788 whole entry, further chain)": "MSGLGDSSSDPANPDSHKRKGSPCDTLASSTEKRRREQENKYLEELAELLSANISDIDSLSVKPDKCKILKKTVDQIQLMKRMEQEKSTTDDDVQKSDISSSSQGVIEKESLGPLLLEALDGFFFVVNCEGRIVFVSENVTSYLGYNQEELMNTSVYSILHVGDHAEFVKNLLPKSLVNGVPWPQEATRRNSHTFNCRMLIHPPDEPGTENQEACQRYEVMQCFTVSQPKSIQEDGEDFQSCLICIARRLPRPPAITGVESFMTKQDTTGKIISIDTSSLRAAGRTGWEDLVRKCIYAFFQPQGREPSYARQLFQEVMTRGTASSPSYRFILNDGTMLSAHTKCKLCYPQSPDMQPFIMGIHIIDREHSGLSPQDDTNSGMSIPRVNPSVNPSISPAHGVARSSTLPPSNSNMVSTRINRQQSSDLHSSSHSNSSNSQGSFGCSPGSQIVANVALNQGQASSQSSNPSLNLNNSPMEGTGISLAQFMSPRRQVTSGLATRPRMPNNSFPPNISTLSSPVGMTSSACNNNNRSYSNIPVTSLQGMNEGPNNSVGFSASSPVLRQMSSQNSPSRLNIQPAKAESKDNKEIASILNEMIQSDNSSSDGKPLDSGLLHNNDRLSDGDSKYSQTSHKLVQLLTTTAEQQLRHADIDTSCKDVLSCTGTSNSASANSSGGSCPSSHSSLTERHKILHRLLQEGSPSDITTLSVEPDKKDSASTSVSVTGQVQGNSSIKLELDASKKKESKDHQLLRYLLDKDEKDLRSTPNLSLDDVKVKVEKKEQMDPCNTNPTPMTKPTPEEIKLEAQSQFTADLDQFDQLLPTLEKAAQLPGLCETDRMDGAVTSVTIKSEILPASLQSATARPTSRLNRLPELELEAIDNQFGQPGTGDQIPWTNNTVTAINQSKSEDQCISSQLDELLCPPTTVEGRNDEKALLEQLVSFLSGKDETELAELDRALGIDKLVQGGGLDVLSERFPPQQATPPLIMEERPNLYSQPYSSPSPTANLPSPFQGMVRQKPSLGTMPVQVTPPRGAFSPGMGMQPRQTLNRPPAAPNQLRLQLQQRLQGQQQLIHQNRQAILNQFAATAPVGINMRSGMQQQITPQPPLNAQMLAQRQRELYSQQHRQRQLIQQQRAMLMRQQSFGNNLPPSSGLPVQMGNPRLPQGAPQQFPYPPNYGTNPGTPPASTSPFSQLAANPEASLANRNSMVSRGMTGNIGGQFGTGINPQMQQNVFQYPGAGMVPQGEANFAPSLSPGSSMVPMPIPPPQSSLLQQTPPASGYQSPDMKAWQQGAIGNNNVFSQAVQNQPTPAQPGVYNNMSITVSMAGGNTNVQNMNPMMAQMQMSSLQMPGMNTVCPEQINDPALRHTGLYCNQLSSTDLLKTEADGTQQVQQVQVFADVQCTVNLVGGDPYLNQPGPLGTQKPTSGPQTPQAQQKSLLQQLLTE", "assay": "as §1, with “1 (SRC-1)” for “2 (SRC-2)”, “assays (depositor defined):AID1300, AID1808, AID504735, AID631]” for “assays: 1297, 1032 ]”", "assay_type": "protein assay"}, "[12]": {"assay": "intracellular Trypanosoma cruzi inhibitors in host cells – cell-based, plate reader, cherry-pick samples, set 3, dose response (AID 651818)", "assay_type": "functional"}, "[13]": {"assay": "Trypanosoma cruzi growth suppression in host cells – NIH3T3 host cells, beta-gal luminescence, confirmation (AID 2044)", "assay_type": "functional, cell-based"}, "[14]": {"assay": "NIH3T3 cell viability loss – ATP luminescence, mouse fibroblasts, counter-screen, dose response (AID 2010)", "assay_type": "functional, cell-based"}, "[15]": {"target": "DNA dC->dU-editing enzyme APOBEC-3G (Homo sapiens, UniProt Q9HC16)", "sequence (Q9HC16 whole entry)": "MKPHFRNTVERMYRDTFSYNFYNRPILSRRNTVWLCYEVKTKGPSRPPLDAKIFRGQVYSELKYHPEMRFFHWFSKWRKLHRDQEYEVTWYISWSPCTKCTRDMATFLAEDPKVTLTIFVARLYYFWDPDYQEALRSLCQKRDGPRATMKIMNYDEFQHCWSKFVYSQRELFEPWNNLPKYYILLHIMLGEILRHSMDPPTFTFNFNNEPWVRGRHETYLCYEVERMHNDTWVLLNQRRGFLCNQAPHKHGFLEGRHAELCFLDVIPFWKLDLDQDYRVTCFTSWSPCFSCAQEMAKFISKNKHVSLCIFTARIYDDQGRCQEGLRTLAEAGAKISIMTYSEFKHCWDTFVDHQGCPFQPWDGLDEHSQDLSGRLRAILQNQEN", "assay": "Dose Response confirmation of small molecule APOBEC3G DNA Deaminase Inhibitors via a fluorescence-based single-stranded DNA deaminase assay. [Related pubchem assays (depositor defined):AID493012, AID493028]", "assay_type": "functional"}, "[16]": {"assay": "microbe, parasite or virus in culture", "assay_type": "functional", "settings": "Mycobacterium tuberculosis"}, "H9c2": {"test_system": "H9c2", "assay": "cells", "assay_type": "functional, cell-based", "settings": "Rattus norvegicus, H9c2, Myocardium"}, "[17]": {"assay": "viability of uninfected HEp-2 cells – cell-based, HTS, cytotoxicity control for RSV inhibitor project, dose response (AID 2410)", "assay_type": "functional", "settings": "human respiratory syncytial virus"}}, "note": "Active and inactive are the calls of the source.", "data": [{"smiles": "O=S(=O)(NCc1csc(-c2ccccc2)n1)c1ccc(Cl)s1", "values": [{"measurement": "IC50", "setting": "[1]", "result": "> 80 µM (inactive)"}]}, {"smiles": "Nc1nc(O)nc(O)c1N=Cc1ccccc1", "values": [{"measurement": "IC50", "setting": "[1]", "result": "63.8 µM (inactive)"}]}, {"smiles": "Cc1cccc(CN2C(=O)/C(=C\\c3ccc(C(=O)NCCCN4CCN(C)CC4)cc3)Oc3ccccc32)c1", "values": [{"measurement": "EC50", "setting": "[2]", "result": "> 120 µM (not active)"}, {"measurement": "EC50", "setting": "[3]", "result": "> 120 µM (not active)"}, {"measurement": "EC50", "setting": "[4]", "result": "10.6 µM (active)"}, {"measurement": "AC50", "setting": "[5]", "result": "3.6 µM (active)"}]}, {"smiles": "COc1ccc2cc3cc(C(=O)N4CC(C)CC(C)C4)oc3nc2c1", "note": "(configuration not stated)", "values": [{"measurement": "IC50", "setting": "Fatty acid synthase", "result": "3.88 µM (active)"}]}, {"smiles": "Cc1noc(NS(=O)(=O)c2ccc(N/C=C\\C(=O)c3cccc4ccccc34)cc2)c1C", "values": [{"measurement": "EC50", "setting": "[6]", "result": "> 53 µM (inactive)"}, {"measurement": "IC50", "setting": "[7]", "result": "> 47.1 µM (inactive)"}]}, {"smiles": "Cc1ccc(Cl)cc1-c1ccc(/C=N/c2ccc(N3CCOCC3)cc2)o1", "values": [{"measurement": "IC50", "setting": "[8]", "result": "11.2 µM (active)"}, {"measurement": "EC50", "setting": "[9]", "result": "19.4 µM (not active)"}, {"measurement": "EC50", "setting": "[10]", "result": "> 79.4 µM (not active)"}, {"measurement": "EC50", "setting": "[11]", "result": "27.9 µM (inactive)"}]}, {"smiles": "C[C@H]1CN([C@@H](C)CO)C(=O)c2cccc(NC(=O)Nc3ccccc3)c2O[C@@H]1CN(C)Cc1ccc(C(=O)Nc2ccccc2N)cc1", "values": [{"measurement": "AC50", "setting": "[12]", "result": "1.54 µM (active)"}]}, {"smiles": "CCCNC(=O)Cn1sc2nc(C)cc(C)c2c1=O", "values": [{"measurement": "EC50", "setting": "[13]", "result": "3.08 µM (active)"}, {"measurement": "EC50", "setting": "[14]", "result": "9.56 µM (active)"}, {"measurement": "IC50", "setting": "[1]", "result": "45.5 µM (inactive)"}, {"measurement": "IC50", "setting": "[15]", "result": "5.41 µM (active)"}]}, {"smiles": "C[C@H](CO)N1C[C@H](C)[C@H](CN(C)Cc2ccc(C(=O)Nc3ccccc3N)cc2)Oc2c(NC(=O)Nc3ccc4c(c3)OCO4)cccc2C1=O", "values": [{"measurement": "AC50", "setting": "[12]", "result": "5.97 µM (active)"}]}, {"smiles": "CCN1CCCC1CNC(=O)c1ccc2c(c1)NC(=O)/C(=C\\c1ccccc1Cl)S2", "note": "(configuration not stated)", "values": [{"measurement": "IC50", "setting": "[1]", "result": "> 80 µM (inactive)"}]}, {"smiles": "CCNc1nc(Nc2ccc(C)c(Cl)c2)c2cnn(C)c2n1", "values": [{"measurement": "CC50", "setting": "[16]", "result": "> 40 µM (active)"}]}, {"smiles": "Cn1c(=O)c2c(nc(NCCCO)n2C/C=C/c2ccccc2)n(C)c1=O", "values": [{"measurement": "IC50", "setting": "H9c2", "result": "> 79 µM (inactive)"}]}, {"smiles": "O=C(c1ccccc1)c1nn(-c2ccc(Cl)cc2)cc1C(=O)c1cc2ccccc2oc1=O", "values": [{"measurement": "EC50", "setting": "[6]", "result": "> 53 µM (inactive)"}, {"measurement": "IC50", "setting": "[7]", "result": "> 47.1 µM (inactive)"}]}, {"smiles": "CCOC(=O)c1c(NC(=O)COC(=O)c2ccc(O)cc2)sc(C(=O)N(C)C)c1C", "values": [{"measurement": "IC50", "setting": "H9c2", "result": "> 79 µM (inactive)"}]}, {"smiles": "COc1ccc(NC(=S)N2CCC(N(C)CCN3CCOCC3)CC2)cc1Cl", "values": [{"measurement": "EC50", "setting": "[6]", "result": "> 53 µM (inactive)"}, {"measurement": "IC50", "setting": "[7]", "result": "> 47.1 µM (inactive)"}]}, {"smiles": "Cc1cccc2sc(NC(=O)C3c4ccccc4Oc4ccccc43)nc12", "values": [{"measurement": "CC50", "setting": "[17]", "result": "15.1 µM (active)"}, {"measurement": "AC50", "setting": "[5]", "result": "2.83 µM (active)"}]}, {"smiles": "COc1ccc(S(=O)(=O)Nc2ccc3c(c2)CC(=O)N([C@H](C)CO)C[C@@H](C)[C@H](CN(C)Cc2ccc4c(c2)OCO4)O3)cc1", "values": [{"measurement": "AC50", "setting": "[12]", "result": "5.51 µM (active)"}]}, {"smiles": "C[C@H](CO)N1C[C@H](C)[C@H](CN(C)Cc2ccc(C(=O)Nc3ccccc3N)cc2)Oc2ccc(NC(=O)C3CCCCC3)cc2CC1=O", "values": [{"measurement": "AC50", "setting": "[12]", "result": "3.41 µM (active)"}]}, {"smiles": "CCN(CC(=O)NC1CCCCC1)S(=O)(=O)c1ccc(Cl)cc1", "values": [{"measurement": "AC50", "setting": "[5]", "result": "> 195 µM (inactive)"}]}]}
